According to ChEMBL document CHEMBL1127838, “Development of a receptor-interaction model for serotonin 5-HT2 receptor antagonists. Predicting selectivity with respect to dopamine D2 receptors” (J Med Chem, 1994):

How the values were obtained:
[1] = target: Serotonin 2 (5-HT2) receptor (Rattus norvegicus, UniProt P30994+P08909+P14842); test: Binding affinity at serotonin 5-hydroxytryptamine 2 receptor by [3H]ketanserin displacement.; format: protein assay
D(2) dopamine receptor = D(2) dopamine receptor (Rattus norvegicus, UniProt P61169); test: Binding affinity at dopamine D2 receptor by [3H]spiperone displacement.
Chain of D(2) dopamine receptor (P61169 whole entry): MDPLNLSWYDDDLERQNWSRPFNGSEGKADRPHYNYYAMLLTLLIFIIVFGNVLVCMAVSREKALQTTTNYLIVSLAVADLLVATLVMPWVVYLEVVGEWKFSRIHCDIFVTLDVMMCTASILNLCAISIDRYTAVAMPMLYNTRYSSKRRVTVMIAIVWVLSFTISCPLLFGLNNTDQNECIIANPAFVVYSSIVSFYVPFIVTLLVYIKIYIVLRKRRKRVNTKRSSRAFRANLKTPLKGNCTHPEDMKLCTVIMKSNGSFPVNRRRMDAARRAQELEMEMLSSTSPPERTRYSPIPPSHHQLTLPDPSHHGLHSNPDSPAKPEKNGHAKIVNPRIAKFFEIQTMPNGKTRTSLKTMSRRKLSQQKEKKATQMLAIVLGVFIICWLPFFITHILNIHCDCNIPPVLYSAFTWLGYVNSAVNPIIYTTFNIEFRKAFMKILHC

Row | IC50 [1] [nM] | Structure (SMILES) | IC50 (D(2) dopamine receptor; read-out: IC50) [nM] | further results
1 | 2.6 | O=C1NCCN1CCN1CCN([C@@H]2C[C@@H](c3ccc(F)cc3)c3cc(Cl)ccc32)CC1 | – | –
2 | – | CN1CCC(=C2c3ccccc3C=Cc3ccc(Br)cc32)CC1 | – | Ki (D(2) dopamine receptor): 4 nM
3 | 3.1 | OCCN1CCN([C@@H]2C[C@@H](c3ccc(F)cc3)c3ccc(C(F)(F)F)cc32)CC1 [TEFLUDAZINE] | – | –
4 | – | CN1CCC(=C2c3ccccc3C=Cc3ccccc32)CC1 [CYPROHEPTADINE] | – | IC50 (D(2) dopamine receptor): 140 nM
5 | 2.6 | CN1CCC(=C2c3ccccc3C(O)c3ccccc32)CC1 (stereo not drawn) | 1600 | –

Row | Structure (SMILES) | IC50 [1] [nM] | IC50 (D(2) dopamine receptor; read-out: IC50) [nM] | further results
6 | O=C1NCCN1CCN1CC=C(c2cn(-c3ccc(F)cc3)c3ccccc23)CC1 | 1.7 | 5.1 | –
